Key:
OVA challenged mice [1] = experiment: Inflammatory cell infiltration into the lung: total and differential BAL cell counts after OVA challenge; type: in vivo, C57BL/6 mice; conditions: Example 8, 0.07% (w/w) in diet; for Reduction in numbers of lymphocytes in BAL / Reduction in numbers of monocytes/macrophages in BAL / Reduction of total BAL cell counts / Suppression of accumulation of eosinophils in BAL: compared to control diet
Experimental: Eight to nine week old male and female C57BL/6 mice (University of Auckland, New Zealand) were kept on an ovalbumin (OVA)-free normal mouse chow diet from weaning up until they were assigned to a particular diet (control or experimental diet). Each diet group (n=6) contained an equal number of male and female mice. Throughout the study period mice were kept in an air-conditioned room with controlled humidity, temperature, and a 12 h light:dark cycle.
(§1) Body weights were determined, and blood samples collected via the tail vein, prior to assignment of mice to particular diets. After two weeks on an assigned diet mice were immunized with two intraperitoneal (i.p.) injections of 20 μg of OVA (chicken egg albumin grade V; Sigma Chemical Co., St Louis, Mo.) complexed with 2 mg of Imject Alum (Al(OH)3/Mg(OH)2; Pierce Rockford Ill.) in a total volume of 100 μl of PBS on days 0 and 14. Two weeks after the 2nd injection mice were anaesthetized by i.p. injection of a mixture of ketamine and xylazine (Phoenix, Auckland, New Zealand), and challenged intranasally with 100 μg of OVA in 50 μl of PBS. Undiseased control mice were immunized and challenged with PBS using a similar regime. Body weights were determined, and blood, bronchoalveolar lavage (BAL) fluid, and lung tissue samples were collected 6 days after the intranasal challenge. Blood was collected by cardiac puncture after deeply anaesthetizing mice by i.p. injection of a mixture of ketamine and xylazine. Serum was separated from blood samples, and stored at −80° C.
Bronchoalveolar lavage was performed immediately after euthanasia by flushing 1 ml of PBS containing 1% heat inactivated fetal calf serum (lavage buffer) thrice through the lung and airways of mice via the cannulated trachea. The recovered BAL was pooled for each animal, centrifuged at 1,500 rpm at 4° C., and the supernatant stored at −80° C. The cell pellets were resuspended in 1 ml of lavage buffer, and total cell numbers were counted using a hemocytometer. BAL cells were centrifuged onto poly-L-lysine-coated glass slides using a cytospin, and stained with Diff-Quik stain (Dade Behring Inc. USA). Differential cellular counts were made by counting ≧300 cells under light microscopy (Nikon E200 microscope), using standard morphological criteria.

OVA-specific IgE = OVA-specific IgE in serum by ELISA; type: in vivo, C57BL/6 mice; conditions: Table 9; 0.07% (w/w) in diet; OVA challenged mice
Experimental: as §1
(§2) OVA-specific IgG1 in serum samples was measured by standard ELISA employing 96 well microtitre plates (Nunc Maxisorp). Plates were coated with 100 μl of 0.1 M carbonate buffer, pH 9.5, containing 10 μg/ml of OVA (Sigma) overnight at 4° C. After 3 washes with PBS-T (PBS with 0.05% Tween-20) plates were blocked with 200 μl of 3% BSA in PBS, pH 7.2, at room temperature for 90 min. One hundred microlitres of each serum sample (diluted 1:40) was added in triplicate to the wells, and incubated for 2 h at 37° C. Wells were washed four times with PBS-T and 100 μl of goat anti-mouse IgG1-HRP conjugated antibody (Bethyl Laboratories, USA) was added at 1:50,000 dilution. Plates were incubated for 1 h at 37° C., washed 5 times with PBS-T, and 100 μl of peroxidase enzyme substrate o-phenylene diamine (OPD, Sigma Chemical Co, St Louis, Mo.) was added to each well. The colour reaction was stopped after ˜20 min by addition of 50 μl of 4 M H2SO4 to each well. Absorbance was read at 490 nm in a BioRad microplate ELISA reader. Positive and negative sera were used as controls.
OVA-specific IgE was measured as for OVA-specific IgG1 except serum samples were diluted 1:5, and OVA was coated on plates at 100 μg/ml (35). A biotin-conjugated rat anti-mouse IgE monoclonal antibody (diluted 1:200; Pharmingen, San Diego, Calif.) was used to detect OVA-specific IgE antibody, and was detected with avidin-HRP conjugate (diluted 1:250) followed by development with OPD.

OVA-specific IgG1 = OVA-specific IgG1 in serum by ELISA; type: in vivo, C57BL/6 mice; conditions: Table 10; 0.07% (w/w) in diet; OVA challenged mice
Experimental: as §1, §2

OVA challenged mice [2] = experiment: Mucus index score: Schiff staining of airway epithelia; type: in vivo, C57BL/6 mice; conditions: 0.07% (w/w) in diet; for Suppression (inhibition) of mucus production: Example 9, compared to control diet, significance not reached; for Mucus Index Score (Mean ± SEM): Table 7, scale 0-4
Experimental: as §1
(§3) Following BAL, the right lobes of lungs were immediately frozen in dry ice and stored at −80° C. for protein and Western blot analysis. The left lobes of lungs were fixed in 4% paraformaldehyde in 0.1 M PBS (pH 7.4) overnight and embedded either in optimum cutting temperature compound (OCT, Tissue Tek) and kept frozen at −80° C. until cryosectioning for immunohistochemistry, or in paraffin for routine histopathological analysis. Some were stained with a combined hematoxylin-Biebrich Scarlet solution by Luna's method for eosinophils to detect eosinophil granules (34) or with Alcian Blue-Periodic Acid Schiff for the detection of acid and neutral mucins and identification of goblet cells.
The level of Schiff staining of airway epithelia was semi-quantitatively determined to give a mucus index score as described (38), but modified in that Schiff staining was scored by microscopic viewing of airways. A minimum of 4 to 6 representative transversely or sagittally sectioned airways were graded per animal using a scale of 0 (no staining), 1 (25% or less of the airway epithelium stained), 2 (26-50% of the airway epithelium stained), 3 (51-75% of the airway epithelium stained), and 4 ([…]). Airways were analysed only when the complete circumference of the airway could be visualized, and those that opened directly into an alveolar space were not included.

OVA challenged mice [3] = experiment: Histopathology score of lung airway changes; type: in vivo, C57BL/6 mice; conditions: 0.07% (w/w) in diet; for Inhibition of allergen-specific remodelling and inflammation of the lung, in words: Example 10; for Histopathology score (Mean ± SEM): Table 8
Experimental: as §1, §3
The histopathology score was determined from inspection of alcian blue-PAS stained paraffin embedded sections of the left lung of each animal. Lung inflammation, perivascular/peribronchiolar infiltrates, airway epithelial hypertrophy, goblet-cell hyperplasia, constriction of bronchioles, mucin hypersecretion, and beneficial presence of phagocytic macrophages were graded on a scale of 0 (no change) to 4 (marked change). Each animal received an overall histopathology score based on summation of individual scores for each criteria. All slides were scored in a blinded fashion (blinded to diet treatment/group assignment), and scores were presented as the mean±SEM of 4-6 animals/group.

liver = conditions: fed to mice at 0.4% w/w for 4 weeks; cited from earlier work

| Compound | Reduction in numbers of lymphocytes in BAL (OVA challenged mice [1]) | Reduction in numbers of monocytes/macrophages in BAL (OVA challenged mice [1]) | Reduction of total BAL cell counts (OVA challenged mice [1]) | Suppression of accumulation of eosinophils in BAL (OVA challenged mice [1]) | IgE Values, Average (allergen-specific IgE responses) (OVA-specific IgE) | IgG Values, Average (allergen-specific IgG responses) (OVA-specific IgG1) | Suppression (inhibition) of mucus production (OVA challenged mice [2]) | Mucus Index Score (Mean ± SEM) (OVA challenged mice [2]) | Inhibition of allergen-specific remodelling and inflammation of the lung, in words (OVA challenged mice [3]) | Histopathology score (Mean ± SEM) (OVA challenged mice [3]) | Histopathology score (Mean ± SEM) (OVA challenged mice [3]; listed as free fatty acid form of the c-9, t-11 isomer) | Eosinophil count compared to the control diet, in words (OVA challenged mice [1]) | Lymphocyte count compared to the control diet, in words (OVA challenged mice [1]) | Monocyte/macrophages count compared to the control diet, in words (OVA challenged mice [1]) | Total BAL count compared to the control diet, in words (OVA challenged mice [1]) | Effect on the liver, in words (liver) |
| --- | --- | --- | --- | --- | --- | --- | --- | --- | --- | --- | --- | --- | --- | --- | --- | --- |
| CCCCCC/C=C/C=C\CCCCCCCC(=O)O (single isomer, unassigned) [Synthetic c-9, t-11 CLA isomer Free fatty acid, c-9, t-11 CLA] | 72% | 61% | 74% | 87% | 0.89 | 1.91 | 32% | 2.04 ± 1.13 | able to significantly inhibit | 2.02 ± 0.66 | 2.02 |  |  |  |  |  |
| CCCCC/C=C\C=C\CCCCCCCCC(=O)O (single isomer, unassigned) [Synthetic t-10, c-12 CLA isomer Free Fatty Acid, t-10, c-12 CLA, reference compound] |  |  |  |  | 1.25 | 1.95 | 7% | 2.80 ± 1.35 |  | 3.28 ± 0.46 |  |  |  |  |  |  |
| c-9, t-11 CLA [Synthetic c-9, t-11 CLA isomer Triglyceride] | 43% | 53% | 56% | 62% | 1.17 | 1.96 | 15% | 2.58 ± 0.94 |  | 3.08 ± 0.69 |  |  |  |  |  |  |
| t-10, c-12 CLA [Synthetic t-10, c-12 CLA isomer Triglyceride, reference compound] |  |  |  |  | 1.29 | 1.98 | 15% | 2.57 ± 1.16 |  | 3.20 ± 0.79 |  |  |  |  |  |  |
| t-10, c-12 CLA [t-10, c-12 CLA isomer, reference compound] |  |  |  |  |  |  |  |  | not effective |  |  | no significant difference | no significant difference | no significant difference | no significant difference | dramatic enlargement of the liver with steatosis |
